Measurements reported in patent US20210309631A1, “SALT OF CYCLOHEXANE DERIVATIVE” (priority 2018, published 2021).
Read-outs that look alike come from different tables or passages of the source.

Columns and labels:
solubility in water = type: physicochemical; conditions: listed as crystal Form A of the free base
[1] = Hygroscopicity (DVS) experiment, 25° C./80% relative humidity; type: physicochemical; conditions: DVS, 25° C./80% relative humidity; listed as Example 1 free base
Protocol: Dynamic vapor sorption curves were collected on a DVS Intrinsic by SMS (Surface Measurement Systems).
20 mg sample of the crystal forms of the Examples and Comparative Examples are placed in the environment of 25° C./80% relative humidity for a dynamic vapor sorption (DVS) test, and the test results […] are shown in Table 5.

[2] = Plasma pharmacokinetics in SD rats after single intragastric administration (Example 7); type: in vivo; conditions: intragastric 1 mg/kg, Mean ± SD, non-compartmental model, listed as free base
Protocol: The in vivo absorption process and characteristics of the free base and four salts thereof (sulfate, hydrochloride salt, phosphate, maleate) of compound (I) in rats were studied. The pharmacokinetics of a single intragastric administration of 1 mg/kg of a compound of Formula I and four salts thereof (calculated by free base concentration in salt form) were studied in SD rats.
SD rats were given a single intragastric administration of 1 mg/kg free base of Example 1 and four salts thereof (including hydrochloride salt from Example 2, sulfate from Example 3, phosphate from Example 4 and maleate from Example 5). There were 4 male rats in each group. The concentration of the compound of Formula I in plasma was determined, and the pharmacokinetic parameters were calculated according to the concentration-time curve.

[3] = In vivo individual difference analysis: individual plasma concentration versus time in rats (Example 8); design: species or system SD rats; conditions: intragastric 1 mg/kg; for Plasma Concentrations of Compound of Formula I: listed as Compound of Formula I; for concentration at 0 h: 0 h after administration
Protocol: Compound of Formula I and salts thereof (sulfate, hydrochloride salt, phosphate, maleate), supplied by Shanghai Jingxin Biopharmaceutical Co., Ltd. • Strain: SD rats; Gender: male; Body weight: about 250 grams; Source: shanghai Jiesijie Experimental Animal Co., Ltd Route: single intragastric administration; Capacity: measured in 10 mL/kg body weight Preparation: weighing appropriate amount of the free base or salt of the compound of Formula I, adding a small amount of 0.5% CMC-Na to grind, adding 0.5% CMC-Na to the volume. The concentration is measured as the base. 20 SD rats were divided into 5 groups with 4 rats in each group, fasted for 12 h and drank freely before administration. […] The blood was anticoagulated with 1% heparin, the plasma was separated by 8000 rpm centrifugation for 4 min and stored at -40° C. for testing. LC-MS/MS Method. Pharmacokinetic parameters after administration in rats were calculated using a non-compartmental model of DAS 2.0 software.

Q: With `CN(C)C(=O)N[C@H]1CC[C@H](CCN2CCN(c3cccc4ccsc34)CC2)CC1` [Example 1, N′-[trans-4-[2-[7-(benzo[b]thiophene)-7-piperazinyl]ethyl]cyclohexyl]-N,N-dimethylurea] as the molecule, how does the solubility in water (solubility in water) read?
A: about 0.031 mg/ml

Q: And the Hygroscopicity [1]?
A: Almost no

Q: And the Vapor sorption [1]?
A: 0.16%

Q: And the “MRT0-∞” value [2]?
A: 3.63 ± 0.306 h

Q: And the Tmax [2]?
A: 0.583 ± 0.289 h

Q: What about the t1/2 [2] of the same molecule?
A: 2.78 ± 0.463 h

Q: What about the “Plasma Concentrations of Compound of Formula I” value (from here on “Plasma Concentrations”) ([3]; 5 min after administration, Mean ± SD) of the same molecule?
A: 3.40 ± 5.74 ng/mL

Q: And the “Plasma Concentrations” value ([3]; 5 min after administration, rat 1♂)?
A: 0.419 ng/mL

Q: And the “Plasma Concentrations” value ([3]; 5 min after administration, rat 2♂)?
A: 0.624 ng/mL

Q: What about the “Plasma Concentrations” value ([3]; 5 min after administration, rat 3♂) of the same molecule?
A: 12.0 ng/mL

Q: And the “Plasma Concentrations” value ([3]; 5 min after administration, rat 4♂)?
A: 0.543 ng/mL

Q: What about the “Plasma Concentrations” value ([3]; 0.167 h after administration, rat 1♂) of the same molecule?
A: 6.35 ng/mL

Q: What about the “Plasma Concentrations” value ([3]; 0.167 h after administration, rat 3♂) of the same molecule?
A: 25.8 ng/mL

Q: What about the “Plasma Concentrations” value ([3]; 0.333 h after administration, rat 1♂) of the same molecule?
A: 26.8 ng/mL

Q: What about the “Plasma Concentrations” value ([3]; 0.333 h after administration, rat 2♂) of the same molecule?
A: 33.0 ng/mL

Q: And the “Plasma Concentrations” value ([3]; 0.333 h after administration, rat 3♂)?
A: 51.8 ng/mL

Q: What about the “Plasma Concentrations” value ([3]; 0.5 h after administration, rat 2♂) of the same molecule?
A: 37.2 ng/mL

Q: What about the “Plasma Concentrations” value ([3]; 0.5 h after administration, rat 3♂) of the same molecule?
A: 51.6 ng/mL

Q: And the “Plasma Concentrations” value ([3]; 1 h after administration, rat 3♂)?
A: 45.6 ng/mL

Q: And the “Plasma Concentrations” value ([3]; 2 h after administration, rat 3♂)?
A: 23.9 ng/mL

Q: What about the “Plasma Concentrations” value ([3]; 2 h after administration, rat 4♂) of the same molecule?
A: 40.3 ng/mL

Q: And the “Plasma Concentrations” value ([3]; 4 h after administration, rat 2♂)?
A: 6.30 ng/mL

Q: And the “Plasma Concentrations” value ([3]; 4 h after administration, rat 3♂)?
A: 7.95 ng/mL

Q: And the “Plasma Concentrations” value ([3]; 4 h after administration, rat 4♂)?
A: 16.0 ng/mL

Q: What about the “Plasma Concentrations” value ([3]; 6 h after administration, rat 2♂) of the same molecule?
A: 1.94 ng/mL

Q: And the “Plasma Concentrations” value ([3]; 6 h after administration, rat 4♂)?
A: 8.91 ng/mL

Q: What about the “Plasma Concentrations” value ([3]; 9 h after administration, rat 2♂) of the same molecule?
A: 0.95 ng/mL

Q: And the “Plasma Concentrations” value ([3]; 9 h after administration, rat 4♂)?
A: 3.30 ng/mL

Q: What about the “Plasma Concentrations” value ([3]; 12 h after administration, rat 1♂) of the same molecule?
A: 0.372 ng/mL

Q: What about the “Plasma Concentrations” value ([3]; 12 h after administration, rat 2♂) of the same molecule?
A: 0.578 ng/mL

Q: What about the “Plasma Concentrations” value ([3]; 12 h after administration, rat 3♂) of the same molecule?
A: 0.682 ng/mL

Q: What about the “Plasma Concentrations” value ([3]; 12 h after administration, rat 4♂) of the same molecule?
A: 1.66 ng/mL

Q: What about the “Plasma Concentrations” value ([3]; 24 h after administration, Mean ± SD) of the same molecule?
A: 0.497 ± 0.273 ng/mL

Q: And the “Plasma Concentrations” value ([3]; 24 h after administration, rat 1♂)?
A: 0.487 ng/mL

Q: And the “Plasma Concentrations” value ([3]; 24 h after administration, rat 2♂)?
A: 0.308 ng/mL

Q: What about the “Plasma Concentrations” value ([3]; 24 h after administration, rat 3♂) of the same molecule?
A: 0.886 ng/mL

Q: And the “Plasma Concentrations” value ([3]; 24 h after administration, rat 4♂)?
A: 0.306 ng/mL

Q: What about the concentration at 0 h ([3]; male, SD, rat, plasma, oral, 1 mg/kg, Mean ± SD, read-out: Plasma Concentrations of Compound of Formula I) of the same molecule?
A: 0 ng/mL

Q: What about the concentration at 0 h ([3]; male, SD, rat, plasma, oral, 1 mg/kg, rat 1♂, read-out: Plasma Concentrations of Compound of Formula I) of the same molecule?
A: 0 ng/mL

Q: What about the concentration at 0 h ([3]; male, SD, rat, plasma, oral, 1 mg/kg, rat 2♂, read-out: Plasma Concentrations of Compound of Formula I) of the same molecule?
A: 0 ng/mL

Q: And the concentration at 0 h ([3]; male, SD, rat, plasma, oral, 1 mg/kg, rat 3♂, read-out: Plasma Concentrations of Compound of Formula I)?
A: 0 ng/mL

Q: And the concentration at 0 h ([3]; male, SD, rat, plasma, oral, 1 mg/kg, rat 4♂, read-out: Plasma Concentrations of Compound of Formula I)?
A: 0 ng/mL

Q: What about the concentration at 0.167 h ([3]; male, SD, rat, plasma, oral, 1 mg/kg, 0.167 h after administration, Mean ± SD, read-out: Plasma Concentrations of Compound of Formula I) of the same molecule?
A: 14.9 ± 8.3 ng/mL

Q: What about the concentration at 0.167 h ([3]; male, SD, rat, plasma, oral, 1 mg/kg, 0.167 h after administration, rat 2♂, read-out: Plasma Concentrations of Compound of Formula I) of the same molecule?
A: 11.3 ng/mL

Q: And the concentration at 0.167 h ([3]; male, SD, rat, plasma, oral, 1 mg/kg, 0.167 h after administration, rat 4♂, read-out: Plasma Concentrations of Compound of Formula I)?
A: 16.3 ng/mL

Q: What about the concentration at 0.333 h ([3]; male, SD, rat, plasma, oral, 1 mg/kg, 0.333 h after administration, Mean ± SD, read-out: Plasma Concentrations of Compound of Formula I) of the same molecule?
A: 42.2 ± 14.5 ng/mL

Q: And the concentration at 0.333 h ([3]; male, SD, rat, plasma, oral, 1 mg/kg, 0.333 h after administration, rat 4♂, read-out: Plasma Concentrations of Compound of Formula I)?
A: 57 ng/mL

Q: And the concentration at 0.5 h ([3]; male, SD, rat, plasma, oral, 1 mg/kg, 0.5 h after administration, Mean ± SD, read-out: Plasma Concentrations of Compound of Formula I)?
A: 46.4 ± 13.7 ng/mL

Q: What about the concentration at 0.5 h ([3]; male, SD, rat, plasma, oral, 1 mg/kg, 0.5 h after administration, rat 1♂, read-out: Plasma Concentrations of Compound of Formula I) of the same molecule?
A: 33.6 ng/mL

Q: What about the concentration at 0.5 h ([3]; male, SD, rat, plasma, oral, 1 mg/kg, 0.5 h after administration, rat 4♂, read-out: Plasma Concentrations of Compound of Formula I) of the same molecule?
A: 63.3 ng/mL

Q: What about the concentration at 1 h ([3]; male, SD, rat, plasma, oral, 1 mg/kg, 1 h after administration, Mean ± SD, read-out: Plasma Concentrations of Compound of Formula I) of the same molecule?
A: 43.7 ± 14.8 ng/mL

Q: And the concentration at 1 h ([3]; male, SD, rat, plasma, oral, 1 mg/kg, 1 h after administration, rat 1♂, read-out: Plasma Concentrations of Compound of Formula I)?
A: 29.4 ng/mL

Q: What about the concentration at 1 h ([3]; male, SD, rat, plasma, oral, 1 mg/kg, 1 h after administration, rat 2♂, read-out: Plasma Concentrations of Compound of Formula I) of the same molecule?
A: 36.3 ng/mL

Q: And the concentration at 1 h ([3]; male, SD, rat, plasma, oral, 1 mg/kg, 1 h after administration, rat 4♂, read-out: Plasma Concentrations of Compound of Formula I)?
A: 63.6 ng/mL

Q: What about the concentration at 2 h ([3]; male, SD, rat, plasma, oral, 1 mg/kg, 2 h after administration, Mean ± SD, read-out: Plasma Concentrations of Compound of Formula I) of the same molecule?
A: 25.1 ± 10.6 ng/mL

Q: And the concentration at 2 h ([3]; male, SD, rat, plasma, oral, 1 mg/kg, 2 h after administration, rat 1♂, read-out: Plasma Concentrations of Compound of Formula I)?
A: 16.8 ng/mL

Q: And the concentration at 2 h ([3]; male, SD, rat, plasma, oral, 1 mg/kg, 2 h after administration, rat 2♂, read-out: Plasma Concentrations of Compound of Formula I)?
A: 19.2 ng/mL

Q: And the concentration at 4 h ([3]; male, SD, rat, plasma, oral, 1 mg/kg, 4 h after administration, Mean ± SD, read-out: Plasma Concentrations of Compound of Formula I)?
A: 8.91 ± 4.85 ng/mL

Q: What about the concentration at 4 h ([3]; male, SD, rat, plasma, oral, 1 mg/kg, 4 h after administration, rat 1♂, read-out: Plasma Concentrations of Compound of Formula I) of the same molecule?
A: 5.38 ng/mL

Q: What about the concentration at 6 h ([3]; male, SD, rat, plasma, oral, 1 mg/kg, 6 h after administration, Mean ± SD, read-out: Plasma Concentrations of Compound of Formula I) of the same molecule?
A: 3.99 ± 3.32 ng/mL

Q: What about the concentration at 6 h ([3]; male, SD, rat, plasma, oral, 1 mg/kg, 6 h after administration, rat 1♂, read-out: Plasma Concentrations of Compound of Formula I) of the same molecule?
A: 2.03 ng/mL

Q: And the concentration at 6 h ([3]; male, SD, rat, plasma, oral, 1 mg/kg, 6 h after administration, rat 3♂, read-out: Plasma Concentrations of Compound of Formula I)?
A: 3.06 ng/mL

Q: What about the concentration at 9 h ([3]; male, SD, rat, plasma, oral, 1 mg/kg, 9 h after administration, Mean ± SD, read-out: Plasma Concentrations of Compound of Formula I) of the same molecule?
A: 1.65 ± 1.13 ng/mL

Q: What about the concentration at 9 h ([3]; male, SD, rat, plasma, oral, 1 mg/kg, 9 h after administration, rat 1♂, read-out: Plasma Concentrations of Compound of Formula I) of the same molecule?
A: 0.876 ng/mL

Q: What about the concentration at 9 h ([3]; male, SD, rat, plasma, oral, 1 mg/kg, 9 h after administration, rat 3♂, read-out: Plasma Concentrations of Compound of Formula I) of the same molecule?
A: 1.47 ng/mL

Q: And the concentration at 12 h ([3]; male, SD, rat, plasma, oral, 1 mg/kg, 12 h after administration, Mean ± SD, read-out: Plasma Concentrations of Compound of Formula I)?
A: 0.823 ± 0.573 ng/mL
